One series is described as follows: ChromatoLogD. It counts as physicochemical.
Series [1] in a line: Rat in vivo PK (plasma clearance) in SAR tables. The conditions noted are these: read-out: Rat CLp.
Series [2] in a line: Rat brain to plasma ratio (Kp, Kp,uu). The format is in vivo. The conditions noted are these: male, Sprague Dawley, intravenous, 0.2 mg/kg; for Kp at 15 min: brain and plasma, rat brain:plasma; for Kp uu at 15 min: brain and plasma (unbound), rat unbound brain:unbound plasma. The procedure: Determination of brain to plasma ratio:
All animal study procedures were approved by the Institutional Animal Care and Use Committee and were conducted in accordance with the National Institutes of Health regulations of animal care covered in Principles of Laboratory Animal Care (National Institutes of Health). All rats were fasted overnight prior to testing.
For determination of the brain over plasma ratio (Kp), compounds were formulated in 8% ethanol, 32% PEG400 and 60% DMSO (v/v/v) and administered as a single 0.2 mg/kg IV dose (1 mL/kg) to male, Sprague Dawley rats (n = 1) via injection into a surgically-implanted jugular vein catheter. At 15 min post dosing, blood sample was collected into chilled, K2EDTA anticoagulant-fortified tube and immediately placed on wet ice. The blood sample was then centrifuged (1700 rcf, 5 minutes, 4 °C) to obtain plasma sample. At the same post-administration time point, whole brain sample was obtained by rapid dissection, rinsed with PBS, and immediately frozen in individual tissue collection box (dry ice). All brain and plasma samples were stored at -80 °C until […]
Sample Analysis: Concentrations in plasma and brain homogenates were quantified by liquid chromatography tandem mass spectrometry (LC-MS/MS). Whole brains were homogenized in 3 mL of 70:30 IPA:water in a mini bead beater for 3 min, and centrifuged at 3,500 g for 5 min. 5 uL of the supernatant was diluted in 15 uL of blank plasma for quantification of the analytes. Plasma samples were centrifuged at 3,500 g for 5 min. A standard curve was generated by diluting the analytes DMSO stocks with blank plasma to obtain a final concentration of 10,000 ng/ml followed by a serial dilution down to 0.5 ng/ml. Quality controls were generated by a serial dilution of the 5,000 ng/ml standard curve solution in blank plasma to obtain 3 concentrations of 500, 50, and 5 ng/ml. 20 uL of brain diluted in plasma, plasma, blank plasma, standard curve and QC samples were loaded in a V-bottom 96-well plate. 120 uL of acetonitrile containing 0.05 uM carbamazepine (internal standard) was added to each well and the plate was centrifuged at 3,500 g for 5 min. 60 uL of the supernatant of each well (protein free) was transferred to a new 96-well plate containing 60 uL of water. The plates were sealed for analysis by LC-MS/MS.
Plasma and brain tissue samples originating from in vivo studies were analyzed by electrospray ionization using an AB Sciex Q-TRAP 5500 (Foster City, CA) that was coupled to a Shimadzu LC-20AD pump (Columbia, MD) and a Leap Technologies CTC PAL auto-sampler (Carrboro, NC). Analytes were separated by gradient elution using a C18 column (3 x 50 mm, 3 mm; Fortis Technologies Ltd, Cheshire, UK) that was thermostated at 40 °C. HPLC mobile phase A was 0.1% formic acid in water (pH unadjusted); mobile phase B was 0.1% formic acid in acetonitrile (pH […]
min, with an isocratic hold for 0.5 min, before transitioning to 10% B over 0.05 min. The column was re-equilibrated (1 min) before the next sample injection. The total run time was 2.55 min, and the HPLC flow rate was 0.5 ml/min. The source temperature was set at 500 °C, and mass spectral analyses were performed using a Turbo-Ion spray source in positive ionization mode (5.0-kV spray voltage) and using multiple-reaction monitoring of transitions specific for the analytes. All data were analyzed using AB Sciex Analyst 1.5.1 software.
Brain plasma concentration ratio (Kp) was calculated by dividing brain concentration by plasma concentration for each animal. Unbound brain to unbound plasma concentration ratio (Kp,uu) is calculated using the following formula: Kp,uu = (Brain ng/g x brain fu)/(plasma ng/ml x plasma fu).
In-vitro determination of blood-brain barrier penetration potential
Blood-brain barrier penetration was determined using MDR1-MDCK cell monolayers by Absorption Systems, following their protocol. In short, compounds were incubated at […] final concentration on one side of the cell monolayer for 2 hours. […]

For series [3], the system named is 5-strains, with and without S9. The series can be described thus: AMES assay (5-strains, with and without S9). The format is cell-based.
A further series can be described thus: Aqueous solubility. It counts as physicochemical.
Another series has as its target T1, adenosine A3 (Homo sapiens, UniProt P0DMS8).
T1 construct: purchased Eurofins
T1 sequence (P0DMS8 1-318): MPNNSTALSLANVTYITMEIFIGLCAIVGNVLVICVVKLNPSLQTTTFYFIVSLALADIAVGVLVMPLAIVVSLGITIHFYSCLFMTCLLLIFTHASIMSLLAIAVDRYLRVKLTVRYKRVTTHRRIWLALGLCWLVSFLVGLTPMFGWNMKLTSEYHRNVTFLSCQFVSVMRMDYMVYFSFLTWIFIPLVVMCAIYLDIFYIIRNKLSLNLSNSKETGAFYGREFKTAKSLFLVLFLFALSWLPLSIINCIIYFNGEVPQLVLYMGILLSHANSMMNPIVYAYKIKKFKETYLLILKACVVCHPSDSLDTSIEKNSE
Put plainly: Radioligand binding, adenosine A3. The following applies: for IC50: follow-up binding; for inhibition at 10 µM: radioligand binding displacement.

A short description of series [4]: Plasma protein binding, rat. The format is in vitro ADME. The following applies: bound; for fraction unbound at 6 h, 5 µM: rat, plasma, pH 7.4, rat plasma, read-out: PPB rat (converted). On the procedure:
Plasma protein binding and Brain homogenate binding: Determination of fraction unbound (f u) in plasma was conducted in vitro via equilibrium dialysis using HTDialysis (HTD) membrane plates. The top half of the plate was filled with 100 uL of Dubelco’s Phosphate Buffered Saline, pH 7.4 (DPBS). Compounds were diluted into plasma from each species (5 µM final concentration), which was aliquoted in triplicate to the ‘bottom half’ of the prepared HTD plate wells. The HTD plate was sealed and incubated for 6 hours at 37 °C. Following incubation, each well (both top and bottom halves) were transferred (20 µL) to the corresponding wells of a 96-shallow-well (V-bottom) plate. The daughter plates were then matrix-matched (DPBS side wells received equal volume of plasma, and plasma side wells received equal volume of DPBS), and extraction solution (120 µL; acetonitrile containing 50 nM carbamazepine as IS) was added to all wells of both daughter plates to precipitate protein and extract test article. The plates were then sealed and centrifuged (3500 rcf) for 10 minutes at ambient temperature. Supernatant (60 µL) from each well of the daughter plates was then transferred to the corresponding wells of new daughter plates (96-shallow-well, V bottom) containing water (Milli-Q, 60 µL/well), and the plates were sealed in preparation for LC-MS/MS analysis (see LC-MS/MS analysis method below).
The unbound fraction (f u) was calculated following the equation below, and mean values for each species were calculated from 3 replicates. […]
Fraction unbound for both plasma and brain samples was determined using Equation 4.
Equation 4 Determination of fraction unbound in plasma. […]

In another series the target is Kv4.3 (Homo sapiens, UniProt Q9UK17). The series can be described thus: MPC ion channel panel, Kv4.3. The format is cell-based.
Sequence of Kv4.3 (Q9UK17 whole entry): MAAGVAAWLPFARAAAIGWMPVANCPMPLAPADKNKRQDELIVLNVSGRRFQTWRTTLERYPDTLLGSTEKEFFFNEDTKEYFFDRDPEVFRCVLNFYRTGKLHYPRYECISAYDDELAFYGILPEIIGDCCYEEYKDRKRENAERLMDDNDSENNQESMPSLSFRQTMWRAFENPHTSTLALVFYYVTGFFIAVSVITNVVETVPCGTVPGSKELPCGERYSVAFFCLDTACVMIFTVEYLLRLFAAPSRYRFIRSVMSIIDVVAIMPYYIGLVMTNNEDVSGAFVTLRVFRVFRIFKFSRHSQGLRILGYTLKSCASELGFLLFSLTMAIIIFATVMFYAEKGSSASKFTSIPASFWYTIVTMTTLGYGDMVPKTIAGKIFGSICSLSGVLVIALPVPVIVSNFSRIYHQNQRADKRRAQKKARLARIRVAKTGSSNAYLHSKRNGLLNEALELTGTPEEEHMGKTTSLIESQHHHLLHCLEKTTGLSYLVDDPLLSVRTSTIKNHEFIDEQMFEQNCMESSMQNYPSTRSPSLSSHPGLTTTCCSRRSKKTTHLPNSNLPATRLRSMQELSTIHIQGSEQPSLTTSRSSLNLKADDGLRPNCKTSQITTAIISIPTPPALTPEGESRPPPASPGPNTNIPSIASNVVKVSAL
For the next series, the target named is hERG (Homo sapiens, UniProt Q12809). Put plainly: Functional hERG inhibition. It counts as cell-based. For orientation: The hERG channel carries a current that helps repolarise heart muscle cells.
Sequence of hERG (Q12809 whole entry): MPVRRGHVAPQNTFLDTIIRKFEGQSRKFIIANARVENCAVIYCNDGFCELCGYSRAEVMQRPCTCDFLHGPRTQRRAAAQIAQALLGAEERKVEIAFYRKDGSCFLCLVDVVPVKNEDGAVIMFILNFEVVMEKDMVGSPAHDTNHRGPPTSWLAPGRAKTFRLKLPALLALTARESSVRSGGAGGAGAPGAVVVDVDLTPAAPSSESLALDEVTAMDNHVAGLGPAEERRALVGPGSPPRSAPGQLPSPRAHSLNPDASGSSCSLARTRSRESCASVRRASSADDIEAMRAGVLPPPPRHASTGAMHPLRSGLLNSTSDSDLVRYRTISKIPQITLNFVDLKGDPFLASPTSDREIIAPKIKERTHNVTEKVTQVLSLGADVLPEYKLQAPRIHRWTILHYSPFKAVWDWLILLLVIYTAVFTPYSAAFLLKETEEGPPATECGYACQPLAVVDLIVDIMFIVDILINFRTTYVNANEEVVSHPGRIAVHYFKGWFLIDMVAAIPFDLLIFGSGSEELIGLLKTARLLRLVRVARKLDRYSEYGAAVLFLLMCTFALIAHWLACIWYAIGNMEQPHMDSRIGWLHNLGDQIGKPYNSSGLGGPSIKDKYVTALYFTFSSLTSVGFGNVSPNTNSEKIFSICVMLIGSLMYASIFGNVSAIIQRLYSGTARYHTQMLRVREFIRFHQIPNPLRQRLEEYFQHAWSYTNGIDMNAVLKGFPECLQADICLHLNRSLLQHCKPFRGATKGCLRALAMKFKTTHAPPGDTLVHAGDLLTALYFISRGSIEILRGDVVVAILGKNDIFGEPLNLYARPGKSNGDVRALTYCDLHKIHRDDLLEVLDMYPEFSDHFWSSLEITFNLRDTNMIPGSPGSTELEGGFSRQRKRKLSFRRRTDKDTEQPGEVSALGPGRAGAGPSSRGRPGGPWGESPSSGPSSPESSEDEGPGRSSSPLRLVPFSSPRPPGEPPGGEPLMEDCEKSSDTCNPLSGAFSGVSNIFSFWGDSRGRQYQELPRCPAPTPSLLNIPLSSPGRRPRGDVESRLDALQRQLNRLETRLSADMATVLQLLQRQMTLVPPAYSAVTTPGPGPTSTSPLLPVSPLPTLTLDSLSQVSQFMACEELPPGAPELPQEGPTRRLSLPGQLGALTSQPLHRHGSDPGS

Values after ≈ are worked out from the molar mass of the structure shown. A value given as a limit tells only on which side of the number the result lay.

One may read the chromatographic logD as a lipophilicity value derived from retention on a column. High values mean a more lipophilic compound, low ones a more hydrophilic compound. Broadly, the Kp is tissue or fluid exposure divided by exposure in the circulation. In the case of `Cc1cc(C#Cc2ccccc2)cnc1NC(=O)c1cc(OC[C@@H]2COCCO2)ccc1Cl` [Compound 7, (S)-5-((1,4-Dioxan-2-yl)methoxy)-2-chloro-N-(3-methyl-5-(phenylethynyl)pyridin-2-yl)benzamide], the chromatographic logD in the series “ChromatoLogD” was found to be 4.14. Besides, the clearance in series [1] is 9.43 mL/min/kg. Moreover, the partition ratio (Kp) at 15 min in series [2] is 0.86.
One may read the solubility as the dissolved amount per volume that the medium holds. Higher therefore signals much dissolved substance. The IC50 is the point on the concentration scale where inhibition reaches its midpoint. Read a low IC50 as inhibition by little substance. Usually inhibition stands for the drop in the measured response relative to a control, in per cent. Low readings indicate a response near the control, high ones a response far below the control. Regarding `CC(=O)N1CCC(n2ncc(Cl)c2C(=O)Nc2ncc(C#Cc3ccccc3)cc2C)CC1` [Compound 10, 1-(1-Acetylpiperidin-4-yl)-4-chloro-N-(3-methyl-5-(phenylethynyl)pyridin-2-yl)-1H-pyrazole-5-carboxamide], the AMES result in series [3] is “Negative”. In “Aqueous solubility”, the solubility was 31 µM (≈ 14.3 µg/mL). On adenosine A3, this molecule registered a 50% inhibitory concentration (IC50) of 380 nM and an inhibition at 10 µM of 98%. Further, in “ChromatoLogD”, the chromatographic logD came to 3.8. Also, the fraction unbound at 6 h, 5 µM in [4] was 0.013. For the same molecule, the clearance in [1] was found to be 27.7 mL/min/kg. In addition, at Kv4.3, the inhibition at 10 µM is no more than 50%. For the same molecule, in series [2], the Kp uu at 15 min worked out at 1 and the Kp at 15 min worked out at 2.7. The IC50 against hERG is 6700 nM.
Take `CC(=O)N1CC[C@@H](n2ncc(Cl)c2C(=O)Nc2ncc(C#Cc3ccc(F)cc3)cc2C)[C@H](F)C1` [Compound 11, 1-((3R,4R)-1-Acetyl-3-fluoropiperidin-4-yl)-4-chloro-N-(5-((4-fluorophenyl)ethynyl)-3-methylpyridin-2-yl)-1H-pyrazole-5-carboxamide]: the AMES result in [3] is “Negative”. The same molecule displayed a solubility in “Aqueous solubility” of 14 µM (≈ 6.97 µg/mL). On adenosine A3, the IC50 was 770 nM and at 10 µM the inhibition was 91%. In the series “ChromatoLogD”, this molecule returned a chromatographic logD of 3.9. The fraction unbound at 6 h, 5 µM in [4] was 0.083. The molecule further had an inhibition at 10 µM on Kv4.3 of no more than 50%. Further, in series [2], the Kp uu at 15 min stood at 0.1 and the Kp at 15 min was determined as 1.5. In addition, the IC50 at hERG worked out at 4300 nM.
Take `Cc1cc(C#Cc2ccccc2)cnc1NC(=O)c1c(Cl)cnn1[C@H]1CCOC1` [Compound 15a, (S)-4-Chloro-N-(3-methyl-5-(phenylethynyl)pyridin-2-yl)-1-(tetrahydrofuran-3-yl)-1H-pyrazole-5-carboxamide]: the PPB rat in series [4] (rat plasma) was found to be 98.1%. The fraction unbound at 6 h, 5 µM in series [4] was roughly 0.02. Also, the clearance in [1] stood at 8.9 mL/min/kg. Besides, the concentration ratio (Kp) at 15 min in series [2] turned out to be 2.8.

Source of the values: PMC12621189, “Optimization of Selective and CNS Penetrant Alkyne-Based TREK Inhibitors: The Discovery and Characterization of ONO-9517601 (VU6022856) and ONO-7927846 (VU6024391)” (Journal of Medicinal Chemistry, 2025).
